ChEMBL document CHEMBL5038662, “Isolation, Synthesis, and Structure-Activity Relationship Study on Daphnane and Tigliane Diterpenes as HIV Latency-Reversing Agents” (J Med Chem, 2022)

What was measured:
[1] = tested on: Human immunodeficiency virus 1; test: Antiviral activity against HIV1 in human TZM-bl cells transfected with firefly luciferase and beta-galactosidase reporter genes assessed as activation of LTR-mediated transcriptional activity incubated for 24 hrs by luciferase reporter gene assay; type: functional, organism-based; conditions: Human immunodeficiency virus 1, TZM-bl
TZM = test: Cytotoxicity against human TZM-bl cells measured upto 0.1 uM; type: toxicity, cell-based

Compound | EC50 [1] | Activity (TZM)
CCCCC/C=C\CCC(=O)O[C@@]12[C@H](OC(=O)c3ccccc3)[C@@H](C)[C@@]3(O)[C@@H](C=C(CO)C[C@]4(O)C(=O)C(C)=C[C@@H]34)[C@@H]1C2(C)C | 4.2 nM | Non-Toxic
CC/C=C\C/C=C\CCC(=O)O[C@@]12[C@H](OC(=O)c3ccccc3)[C@@H](C)[C@@]3(O)[C@@H](C=C(CO)C[C@]4(O)C(=O)C(C)=C[C@@H]34)[C@@H]1C2(C)C | 3.2 nM | –
CCCCCCCC(=O)O[C@@]12[C@H](OC(=O)c3ccccc3)[C@@H](C)[C@]3(O)[C@@H]4C=C(C)C(=O)[C@@]4(O)[C@H](O)C(CO)=C[C@H]3[C@@H]1C2(C)C | 12 nM | –
CCCCC/C=C/CCC(=O)O[C@@]12[C@H](OC(=O)c3ccccc3)[C@@H](C)[C@@]3(O)[C@@H](C=C(CO)C[C@]4(O)C(=O)C(C)=C[C@@H]34)[C@@H]1C2(C)C | 5.8 nM | Non-Toxic
CCCCC/C=C\C/C=C\CCCCCCCC(=O)O[C@@]12[C@H](OC(=O)c3ccccc3)[C@@H](C)[C@@]3(O)[C@@H](C=C(CO)C[C@]4(O)C(=O)C(C)=C[C@@H]34)[C@@H]1C2(C)C | 13 nM | Non-Toxic
CCCCCCCCCCCCCCCCCC(=O)O[C@@]12[C@H](OC(=O)c3ccccc3)[C@@H](C)[C@@]3(O)[C@@H](C=C(CO)C[C@]4(O)C(=O)C(C)=C[C@@H]34)[C@@H]1C2(C)C | – | Non-Toxic
CCCCC/C=C/C/C=C\C/C=C\CCCCC(=O)O[C@@]12[C@H](OC(=O)c3ccccc3)[C@@H](C)[C@@]3(O)[C@@H](C=C(CO)C[C@]4(O)C(=O)C(C)=C[C@@H]34)[C@@H]1C2(C)C | 10 nM | Non-Toxic
CCCCCCCC/C=C\CCCCCCCC(=O)O[C@@]12[C@H](OC(=O)c3ccccc3)[C@@H](C)[C@@]3(O)[C@@H](C=C(CO)C[C@]4(O)C(=O)C(C)=C[C@@H]34)[C@@H]1C2(C)C | 16 nM | Non-Toxic
C=C(C)[C@]12C[C@@H](C)[C@@]34O[C@]5(CCCCCCC[C@H](C)[C@H]6[C@H](C)C(=O)[C@@](O)([C@H](O)[C@@]7(CO)O[C@H]7[C@H]3[C@H]1O5)[C@@H]64)O2 | 6.9 nM | –
C=C(C)[C@]12C[C@@H](C)[C@@]34O[C@@](CCCCCCCCC)(O[C@@H]1[C@@H]3[C@@H]1O[C@]1(CO)[C@@H](O)[C@]1(O)C(=O)C(C)=C[C@H]14)O2 | 9 nM | –
C=C(C)[C@@]12O[C@]3(/C=C/C=C/CCCCCCCCC)O[C@@H]1[C@@H]1[C@@H]4O[C@]4(CO)[C@@H](O)[C@]4(O)C(=O)C(C)=C[C@H]4[C@@]1(O3)[C@H](C)[C@H]2OC(C)=O | 0.39 nM | –
CCCCCCCCCC(=O)O[C@@]12[C@H](OC(=O)c3ccccc3)[C@@H](C)[C@@]3(O)[C@@H](C=C(CO)C[C@]4(O)C(=O)C(C)=C[C@@H]34)[C@@H]1C2(C)C [STELLERARIN] | 0.74 nM | –

Continued, in another order:

EC50 [1] | Compound | Activity (TZM)
18 nM | CCCCC/C=C\CCC(=O)O[C@@H]1[C@@H](C)[C@@]2(O)[C@@H](C=C(CO)C[C@]3(O)C(=O)C(C)=C[C@@H]23)[C@@H]2C(C)(C)[C@]12OC(=O)c1ccccc1 | Non-Toxic
10 nM | CCC(=O)O[C@@]12[C@H](OC(=O)c3ccccc3)[C@@H](C)[C@@]3(O)[C@@H](C=C(CO)C[C@]4(O)C(=O)C(C)=C[C@@H]34)[C@@H]1C2(C)C | Non-Toxic
0.94 nM | CCCCCCC(=O)O[C@@]12[C@H](OC(=O)c3ccccc3)[C@@H](C)[C@@]3(O)[C@@H](C=C(CO)C[C@]4(O)C(=O)C(C)=C[C@@H]34)[C@@H]1C2(C)C | –
1.5 nM | CCCCCCCC(=O)O[C@@]12[C@H](OC(=O)c3ccccc3)[C@@H](C)[C@@]3(O)[C@@H](C=C(CO)C[C@]4(O)C(=O)C(C)=C[C@@H]34)[C@@H]1C2(C)C | –
0.33 nM | C=C(C)[C@]12C[C@@H](COC(C)=O)[C@@]34OC5(O[C@@H]1[C@@H]3[C@@H]1O[C@]1(CO)[C@@H](O)[C@@]1(O)[C@H]4[C@H]([C@H](C)[C@@H]1OCc1ccccc1)[C@H](C)CCCCCC[C@H]5O)O2 | –
12 nM | C=C(C)[C@]12C[C@@H](COC(C)=O)[C@@]34OC5(O[C@@H]1[C@@H]3[C@@H]1O[C@]1(CO)[C@@H](O)[C@@]1(O)[C@H]4[C@H]([C@H](C)[C@@H]1OCc1ccccc1)[C@H](C)C[C@H](OCc1ccccc1)CCCC[C@H]5O)O2 | –
3.9 nM | C=C(C)[C@]12C[C@@H](COCc3ccccc3)[C@@]34OC5(CCCCC[C@@H](OCc6ccccc6)C[C@@H](C)[C@H]6[C@H](C)[C@H](OCc7ccccc7)[C@@](O)([C@H](O)[C@@]7(CO)O[C@H]7[C@H]3[C@H]1O5)[C@@H]64)O2 | –
3.7 nM | C=C(C)[C@]12C[C@@H](COCc3ccccc3)[C@@]34OC5(CCCCCCC[C@@H](C)[C@H]6[C@H](C)C(=O)[C@@](O)([C@H](O)[C@@]7(CO)O[C@H]7[C@H]3[C@H]1O5)[C@@H]64)O2 | –
2.7 nM | C=C(C)[C@]12C[C@@H](C)[C@@]34OC5(CCCCCCC[C@@H](C)[C@H]6[C@H](C)[C@H](OCc7ccccc7)[C@@](O)([C@H](O)[C@@]7(CO)O[C@H]7[C@H]3[C@H]1O5)[C@@H]64)O2 | –
0.14 nM | C=C(C)[C@]12CC[C@@]34OC(C)(O[C@@H]1[C@@H]3[C@@H]1O[C@]1(CO)[C@@H](O)[C@]1(O)[C@@H](OCc3ccccc3)[C@@H](C)C[C@@H]41)O2 | –
7.6 nM | CC/C=C\C/C=C\C/C=C\CCCCCCCC(=O)O[C@@]12[C@H](OC(=O)c3ccccc3)[C@@H](C)[C@@]3(O)[C@@H](C=C(CO)C[C@]4(O)C(=O)C(C)=C[C@@H]34)[C@@H]1C2(C)C | Non-Toxic
3.7 nM | C=C(C)[C@]12CC[C@@]34OC(C)(O[C@@H]1[C@@H]3[C@@H]1O[C@]1(CO)[C@@H](O)[C@]1(O)C(=O)[C@@H](C)C[C@@H]41)O2 | –
